According to patent publication US20240016150A1, “MIXTURES CONTAINING METARYLPICOXAMID” (BASF SE, priority 2020, published 2024):

Key:
Septoria tritici = experiment: Microtest: activity against leaf blotch on wheat; format: cell-based; conditions: single active, MTP, 405 nm, 7 days after inoculation
Experimental: The active compounds were formulated separately as a stock solution having a concentration of 10000 ppm in dimethyl sulfoxide. The stock solutions were mixed according to the ratio, pipetted onto a micro titer plate (MTP) and diluted with water to the stated concentrations. EXAMPLE 1—Activity against leaf blotch on wheat caused by Septoria tritici A spore suspension of Septoria tritici in an aqueous biomalt or yeast-bactopeptone-glycerine or DOB solution was then added. The plates were placed in a water vapor-saturated chamber at a temperature of 18° C. Using an absorption photometer, the MTPs were measured at 405 nm 7 days after the inoculation. The measured parameters were compared to the growth of the active compound-free control variant (100%) and the fungus-free blank value to determine the relative growth in % of the pathogens in the respective active compounds. These percentages were converted into efficacies. An efficacy of 0 means that the growth level of the pathogens corresponds to that of the untreated control; an efficacy of 100 means that the pathogens were not growing. The expected efficacies of active compound mixtures were determined using Colby's formula [R.S. Colby, “Calculating synergistic and antagonistic responses of herbicide combinations”, Weeds 15, 20-22 (1967)] and compared with the observed efficacies.

Phakopsora pachyrhizi = experiment: Greenhouse: curative control of soybean rust on soybeans; format: in vivo; conditions: single active, sprayed to run-off, soybean seedlings, assessed after 14 days
Experimental: EXAMPLE 1—Curative control of soybean rust on soybeans caused by Phakopsora pachyrhizi
Leaves of potted soybean seedlings were inoculated with spores of Phakopsora pachyrhizi. To ensure the success of the artificial inoculation, the plants were transferred to a humid chamber with a relative humidity of about 95% and 20 to 24 ? C for 24 h. The next day the plants were cultivated for 2 days in a greenhouse chamber at 23-27 °C and a relative humidity between 60 and 80%. Then the plants were sprayed to run-off with the previously described spray solution, containing the concentration of active ingredient or their mixture as described below. The plants were allowed to air-dry. Then the trial plants were cultivated for 14 days in a greenhouse chamber at 23-27 °C and a relative humidity between 60 and 80%. The extent of fungal attack on the leaves was visually assessed as % diseased leaf area.
The disease ratings (or diseased leaf area) were converted into efficacies.
An efficacy of 0 means that the infection level of the treated plants corresponds to that of the untreated control plants; an efficacy of 100 means that the treated plants were not infected.
The expected efficacies of active compound mixtures were determined using Colby's formula [R.S. Colby, “Calculating synergistic and antagonistic responses of herbicide combinations”, Weeds 15, 20-22 (1967)] and compared with the observed efficacies.

Alternaria solani = experiment: Microtest: activity against early blight; format: cell-based; conditions: single active, MTP, 405 nm, 7 days after inoculation
Experimental: The active compounds were formulated separately as a stock solution having a concentration of 10000 ppm in dimethyl sulfoxide. The stock solutions were mixed according to the ratio, pipetted onto a micro titer plate (MTP) and diluted with water to the stated concentrations. Example 2—Activity against early blight caused by Alternaria solani A spore suspension of Alternaria solani in an aqueous biomalt or yeast-bactopeptone-glycerine or DOB solution was then added. The plates were placed in a water vapor-saturated chamber at a temperature of 18° C. Using an absorption photometer, the MTPs were measured at 405 nm 7 days after the inoculation. The measured parameters were compared to the growth of the active compound-free control variant (100%) and the fungus-free blank value to determine the relative growth in % of the pathogens in the respective active compounds. These percentages were converted into efficacies. An efficacy of 0 means that the growth level of the pathogens corresponds to that of the untreated control; an efficacy of 100 means that the pathogens were not growing. The expected efficacies of active compound mixtures were determined using Colby's formula [R.S. Colby, “Calculating synergistic and antagonistic responses of herbicide combinations”, Weeds 15, 20-22 (1967)] and compared with the observed efficacies.

SMILES | Observed efficacy (Septoria tritici; 4 ppm) | Observed efficacy (Phakopsora pachyrhizi; 1 ppm) | Observed efficacy (Alternaria solani; 1 ppm) | Observed efficacy (Phakopsora pachyrhizi; 0.25 ppm) | Observed efficacy (Alternaria solani; 0.016 ppm) | Observed efficacy (Septoria tritici; 0.063 ppm) | Observed efficacy (Septoria tritici; 0.25 ppm)
CCC(=O)Oc1c(OC)ccnc1C(=O)N[C@@H](C)C(=O)O[C@@H](C)[C@@H](C)c1ccccc1C [Compound I, [(1S,2S)-1-methyl-2-(o-tolyl)propyl] (2S)-2-[(4-methoxy-3-propanoyloxy-pyridine-2-carbonyl)amino]propanoate] | 56 | 18 | 0 |  |  |  | 
CON(Cc1ccc(-c2noc(C(F)(F)F)n2)cc1)C(=O)C1CC1 [Compound II-1, N-methoxy-N-[[4-[5-(trifluoromethyl)-1,2 ,4-oxadiazol-3-yl]phenyl]methyl]cyclopropanecarboxamide] |  | 14 |  | 0 | 0 |  | 
O=C(NC1CCC1c1ccc(Cl)cc1Cl)c1cccnc1C(F)(F)F (centres unmarked) [Compound II-2, N-[2-(2,4-dichlorophenyl)cyclobutyl]-2-(trifluoromethyl)pyridine-3-carboxamide] |  |  |  |  |  | 12 | 49
